Measurements reported in US7226766B2, “S-methylcysteine, S-ethylcysteine, and related S-alkylthiols as antagonists to the effects of S-nitrosothiols and nitric oxide” (University of Iowa Research Foundation, priority 2001, dated 2007).

How the values were obtained:
[1] = tested on: Sprague-Dawley rats treated with lipopolysaccharide (septic shock model); experiment: experimental model of septic shock: lipopolysaccharide-treated conscious rats, hemodynamic measurements and deaths; format: in vivo, rat; details: for number of treated rats that died: lipopolysaccharide-treated rats, 22 rats received L-NAME, 12 rats S-methyl cysteine; for mean arterial pressure after treatment: rats 72 hours after lipopolysaccharide 0.5 mg/kg i.p., L-NAME 25 μmole/kg or S-methyl-L-cysteine 200 nmol/kg infusion for 10 minutes + 500 nmol/kg bolus; for total peripheral resistance after treatment (in words): L-NAME 25 μmole/kg or S-methyl-L-cysteine 200 nmol/kg infusion + 500 nmol/kg bolus
Method: Male 16 week old Sprague-Dawley rats were anesthetized for surgical placement of intraaortic pressure tranducers and Dopplar flow probes around the abdominal aorta and the left main coronary artery. After 48 hours of recovery baseline measurements of arterial blood pressure, cardiac output (as Dopplar flow), and coronary blood flow (Dopplar) were obtained in conscious unrestrained animals. The rats were then treated with intraperotoneal injections of purified lipopolysaccharide 0.5 mg/kg. After 72 hours when the induction of iNOS had produced a fall in blood pressure, measurements were repeated. Each rat then received either 25 μmole/kg of the nitric oxide synthase inhibitor L-NAME or an infusion of 200 nmol/kg of S-methyl-L-cysteine for 10 minutes followed by a 500 nmol/kg bolus dose of S-methyl-L-cysteine. The measurements were then repeated a third time.

[2] = tested on: hypotensive effects of infused S-nitrosocysteine; experiment: inhibition of the hypotensive effects of infused S-nitrosocysteine; details: in vivo
[3] = rats 72 hours after lipopolysaccharide, L-NAME 25 μmole/kg
[4] = rats 72 hours after lipopolysaccharide

Row | SMILES | number of treated rats that died [1] | mean arterial pressure after treatment [1] | coronary resistance after treatment [1, 3] | heart rate after treatment [1, 3] | total peripheral resistance after treatment [1, 3] | total peripheral resistance after treatment (in words) [1, 4] | coronary blood flow after treatment ([1]; rats 72 hours after lipopolysaccharide, L-NAME 25 μmole/kg, Doppler) | cardiac output after treatment ([1]; rats 72 hours after lipopolysaccharide, L-NAME 25 μmole/kg, Doppler flow) | effect on the hypotensive effects of infused S-nitrosocysteine [2] | mean arterial pressure after treatment ([1]; listed as S-methyl cysteine) | coronary blood flow after treatment (in words) ([1]; rats 72 hours after lipopolysaccharide, S-methyl-L-cysteine 200 nmol/kg infusion for 10 minutes + 500 nmol/kg bolus)
1 | COC(=O)[C@@H](N)CCCNC(=N)N[N+](=O)[O-] [L-NAME, Nω-nitro-L-arginine methyl ester, reference compound] | 7 | returned mean arterial pressure to baseline values | about 160 % of baseline values | about 60 % of the pre-treatment values | about 160 % of baseline values | increased total peripheral resistance far above normal | about 60 % of the pre-treatment values | about 60 % of the pre-treatment values | – | – | –
2 | CSC[C@H](N)C(=O)O [S-methyl-L-cysteine] | none died | attenuated the hypotension induced by lipopolysaccharide | – | – | – | returned to normal values | – | – | inhibit the hypotensive effects of infused S-nitrosocysteine | returned mean arterial pressure to baseline values | to pre-treatment values
